Entries after “also recorded” stand apart in the source; their conditions may differ. Like-named read-outs stand apart in the source and are kept apart here.
Assays:
normal pigs = assay: Haemodynamic effects after LAD injection in normal pigs without balloon occlusion (Example 2b); type: in vivo, pig; conditions: 25 ml (0.4 ml/sec) into LAD, 9 injections in 3 pigs
Text: FIG. 5 depicts the effect of Compound I (with and without added Ca) and Visipaque on LVSP 45 to 70 seconds from the start of injection to the LAD of normal pigs normalised to Ringer Lacate (LR) injection.
The haemodynamic effects of compositions of Compound I with and without added CaCl2 were compared to Visipaque and Iopamidol following selective administration to the LAD in normal pigs without balloon occlusion. The effects of each contrast media were normalised to any effects seen with an equivalent injection of Ringer Lactate solution, which acted as a volume and electrolyte—“ratio” control. There were a total of 12 pigs in this study, and each pig received a single CM injected 3 times at volumes of 10 ml (4 ml/sec), 20 ml (1 ml/sec) and 25 ml (0.4 ml/sec) (total of 9 CM injections in each pig). Each CM was either preceded or followed by a control injection of Ringer Lactate, and the order of each injection (volume) was randomised in each pig.

Sca:SD rats = conditions: rat, in vivo
Description: Young adult male Sca:SD rats (Scanbur, Sweden), weighing 200±20 g, were injected intravenously at a rate of 1.2 ml/min with either Compound I (340 mgI/mL, 286 mosmol/kg), iodixanol (321 mgI/mL, 284 mosmol/kg), osmotic control mannitol (283 mosmol/kg), or saline (290 mosmol/kg), administered as 2 separate doses 4 hours apart. For the interim kill animals (day 2 post-treatment), Compound I and iodixanol were dosed at 8, 10 and 12.8 gI/kg, corresponding to total dose volumes of 23.7, 29.7 and 38.0 ml/kg, and 25, 31.3 and 40 ml/kg, respectively, whereas for mannitol and saline, the dose volume was 40 ml/kg. For the 7 day terminal kill animals, there were 4 dose groups; Compound I and iodixanol (12.8 gI/kg), and saline and mannitol (40 mL/kg). In all cases, each group included 8 animals.
The following evaluations were made during the study; clinical signs, body weights and blood for haematology and clinical chemistry on days 0, 2 and 7, and gross observations, organ weight and histomorphological examination of tissues from the animals killed by excess intravenous thiopental injection on days 2 or 7. The day of dosing was defined as Day 0. Clinical biochemistry parameters (Na, K, Cl, PO4, Ca, AST, ALT, ALP, cholesterol, creatinine, CK, GGT, TG (triglyceride), total bilirubin, total protein, urea, albumin, LDH and GLDH were measured on a Beckman Synchron CX5 at 37° C. Haematology parameters (WBC, differential WBC, RBC, WBC/RBC ratio, Hgb, PLT, HCT, MCH, MCHC, MCV, MPV and RDW) were analyzed with an Abbott Cell-Dyn 3500 CS automated haematology analyzer. Kidneys from saline control and the 12.8 gI/kg Compound I and iodixanol groups were immerse fixed in 10% neutral buffered formalin, processed into paraffin wax, sectioned at a nominal thickness of 5 μm, stained with haematoxylin and eosin and examined by light microscopy.
The data were analysed by parametric one-way ANOVA, followed by Dunnett's post procedure test, using the 2 days and 7 days saline groups for comparison with the 2 days and 7 days iodixanol and Compound I groups. The statistical analysis was applied on day −1 (baseline), day 2 and day 7.

[1] = Partition coefficient between octanol and water; type: physicochemical; conditions: n-octanol/water
Description: As a measure of the hydrophilicity of Compound I, the partition coefficient between octanol and water was determined. Water (5 ml) containing the test substance (0.3 mg/ml) was shaken with 15 ml n-octanol until equilibrium had been obtained. The aqueous phase was separated by centrifugation and analyzed by HPLC (HP1100 equipped with a Discovery C18 column, 100×2.1 mm) using UV detection at 244 nm and a flow of 0.3 ml/min. Isocratic HPLC conditions were used, 8% acetonitrile in water (v/v). The octanol phase (12.5 ml) was extracted with water (0.75 ml) until equilibrium had been obtained and the phases were separated by centrifugation. The aqueous phase was analyzed by HPLC using the conditions detailed above. Both octanol and water were pre-saturated with water and octanol, respectively, before the partition coefficient experiments. […] As a comparison, the corresponding logP of iodixanol was determined to −4.02. The reported literature value is −4.05. The increased hydrophilicity of Compound I compared to iodixanol is confirmed by its HPLC behavior.

[2] = Osmolality, vapour pressure osmometer; type: physicochemical; conditions: 320 mgI/ml
Description: The osmolality of Compound I was determined at four different concentrations, 204, 254, 310 and 324 mgI/ml. The osmolality of Compound I at 320 mgI/ml is 136 mOsm/kg.
The osmolality of Compound I was determined at four different concentrations, 204, 254, 310 and 324 mgI/ml. A Vapro 5520 vapour pressure osmometer from Vapro Inc. was used.
The osmolality of Compound I at 320 mgI/ml is lower than that of iodixanol, 136 mOsm/kg vs 210 mOsm/kg at 320 mgI/ml.

[3] = tested on: human serum albumin (HSA); assay: Binding to human serum albumin, equilibrium dialysis; type: in vitro ADME; conditions: 25 hours, citrated human plasma
Description: The binding of Compound I to human serum albumin (HSA) was determined using an equilibrium dialysis method. The binding of Compound I to human serum albumin was determined to be very low, 3.1±1.3%, confirming the negligible interaction of the substance with endogenous proteins.
The binding of Compound I to human serum albumin (HSA) was determined using an equilibrium dialysis method. A stock solution of Compound I (5.0 mg/ml in phosphate buffered saline (PBS)) was mixed with citrate:human plasma in a ratio of 1:9. Equilibration was carried out in a Diachem Dianorm Dialyser against an aqueous phosphate buffered saline using a Diachem 10.17 MW cutoff 10000 membrane and was carried out for 25 hours. Analysis of the solutions was performed using an ICP-AES instrument. In addition, spiked PBS solutions were also equilibrated against citrated human plasma solutions to ensure that the equilibrium had been obtained. The binding of Compound I to human serum albumin was determined to be very low, 3.1±1.3%, confirming the negligible interaction of the substance with endogenous proteins. As a reference, the binding of iodixanol to HSA was determined to 0.4±0.9%.

[4] = octanol/water; cited from earlier work
[5] = tested on: CD25^+-depleted peripheral blood mononuclear cells; assay: In vitro T cell proliferation model; type: cell-based; conditions: 2 and 5 mg I/mL
Description: Generally, iodinated contrast media may cause late hypersensitivity reactions in susceptible patients from 1 hour to several days after exposure. These reactions are mainly non-serious skin eruptions such as macular, maculopapular and urticaria-like eruptions. Contrast media-induced delayed adverse reactions (DARs) such as skin eruptions appear to be caused by contrast media-reactive T cells that, upon recognizing the contrast media, proliferate and subsequently orchestrate an inflammatory reaction in the skin. The applicant has evaluated an in vitro T cell proliferation model designed to predict the relative frequency with which contrast media, such as Compound I, will cause late skin reactions in patients post-intravascular administration. Two contrast media, iodixanol and iohexol, with known rates of delayed skin reactions, and the new contrast medium, Compound I, was screened (2 and 5 mg I/mL) for in vitro T cell proliferation in CD25^+-depleted peripheral blood mononuclear cells from 100 donors representing world population HLA-DR frequencies. Positive T cell responses were evaluated according to published protocols and stimulation index values (positive response≧1.9). In vitro toxicity was tested by measuring cell viability of the first 10 donor samples incubated with test contrast media (5 mg I/mL). The results were that all major HLA-DR allotypes were represented with a frequency equivalent to the world population. No contrast media tested appeared to have a meaningful effect on cell viability. […] For iodixanol and iohexol, T cell proliferation responses for most donors occurred on days 7 and 8; statistical significance favored a reduced proliferation response to Compound I on day 8. In conclusions the model successfully established the relative frequency with which contrast media caused in vitro T cell activation. The results correlated with reported frequency of late skin reactions with two marketed contrast media and identified a lower frequency for Compound I.

Row | SMILES | induction of ventricular fibrillation (VF) (normal pigs) | Glomerulus: Bowman's Space Proteinaceous Material, Right Kidney (Sca:SD rats; male, Sca:SD, 2 day) | duration of clinical signs (Sca:SD rats; male, Sca:SD, iv) [h] | onset of clinical signs after the first administration (Sca:SD rats; male, Sca:SD, iv) [min] | Glomerulus: Bowman's Space Proteinaceous Material, Right Kidney (Sca:SD rats) | adverse clinical signs (Sca:SD rats; iv) | logP [1] | osmolality [2] [mOsm/kg] | binding to human serum albumin (HSA) [3] [%] | logP, reported literature value [4] | days on which T cell proliferation responses occurred for most donors [5]
1 | C[C@H](O)C(=O)Nc1c(I)c(C(=O)NC(CO)CO)c(I)c(C(=O)NC(CO)CO)c1I [Iopamidol, reference compound] | VF was observed in each case; also recorded: induced VF on every occasion | – | – | – | – | – | – | – | – | – | –
2 | CC(=O)N(CC(O)CN(C(C)=O)c1c(I)c(C(=O)NCC(O)CO)c(I)c(C(=O)NCC(O)CO)c1I)c1c(I)c(C(=O)NCC(O)CO)c(I)c(C(=O)NCC(O)CO)c1I (stereo not drawn) [iodixanol, reference compound] | – | P, P, P, 0 | 2 to 3 | 10 to 20 | P, P, P, P, | mild to moderate depression and uncoordinated movements and weakness/inactivity | -4.02 | 210 | 0.4±0.9 | −4.05 | days 7 and 8
3 | CC(=O)N(CC(O)CO)c1c(I)c(C(=O)NCC(O)CO)c(I)c(C(=O)NCC(O)CO)c1I (stereo not drawn) [iohexol, reference compound] | – | – | – | – | – | – | – | – | – | – | days 7 and 8
